Assay results as given in ChEMBL document CHEMBL1201862, “PubChem BioAssay data set” (2004).
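96-well plates; 48 h exposure; 5 concentrations. Endpoints by linear interpolation between flanking doses. Not reached: highest tested concentration assigned. GI50 marks 50% less growth.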 Activity calls are given as the source filed them. Rule as the data show it: active = GI50 up to about 1.1 µM and inactive = higher.

Columns and labels:
Experiment in all cases: DTP human tumour cell line panel, 48 h
[1] = tested on: OVCAR-5
[2] = tested on: Malme-3M
[3] = tested on: EKVX
[4] = tested on: HT-29
[5] = tested on: OVCAR-4
[6] = tested on: SK-MEL-28
[7] = tested on: SF-295
[8] = tested on: SNB-19
[9] = tested on: CCRF-CEM
[10] = tested on: LOX IMVI
[11] = tested on: K562
[12] = tested on: Hs-578T
[13] = tested on: MCF7
[14] = tested on: NCI-H23
[15] = tested on: HCC 2998
[16] = tested on: DU-145
[17] = tested on: NCI-H226
[18] = tested on: COLO 205
[19] = tested on: SK-MEL-2
[20] = tested on: OVCAR-8

Structure (SMILES)	GI50 [1]	GI50 [2]	GI50 [3]	GI50 [4]	GI50 [5]	GI50 [6]	GI50 [7]	GI50 [8]	GI50 [9]	GI50 [10]	GI50 [11]	GI50 [12]	GI50 [13]	GI50 [14]	GI50 [15]	GI50 [16]	GI50 [17]	GI50 [18]	GI50 [19]	GI50 [20]
[N-]=[N+]=NCC(=O)c1cnc(O)nc1O	> 100 µM (inactive)	> 100 µM (inactive)	> 100 µM (inactive)	> 100 µM (inactive)	> 100 µM (inactive)	> 100 µM (inactive)	> 100 µM (inactive)	> 100 µM (inactive)	> 100 µM (inactive)	> 100 µM (inactive)	> 100 µM (inactive)	> 100 µM (inactive)	> 100 µM (inactive)	> 100 µM (inactive)	> 100 µM (inactive)	> 100 µM (inactive)	> 100 µM (inactive)	> 100 µM (inactive)	> 100 µM (inactive)	> 100 µM (inactive)
CC(C)(C)c1cc(C(=O)/C=C/c2cc[nH]n2)cc(C(C)(C)C)c1O	5.37 µM (inactive)	7.29 µM (inactive)	13.4 µM (inactive)	2.61 µM (inactive)	6.4 µM (inactive)	6.11 µM (inactive)	13.7 µM (inactive)	3.87 µM (inactive)	2.07 µM (inactive)	1.85 µM (inactive)	3.08 µM (inactive)	2.57 µM (inactive)	1.36 µM (inactive)	2.78 µM (inactive)	1.88 µM (inactive)	2.56 µM (inactive)	5.73 µM (inactive)	2.07 µM (inactive)	1.78 µM (inactive)	2.39 µM (inactive)
O=C(O)COc1c(Cl)cc(Cl)c(C(c2c(Cl)cc(Cl)c(OCC(=O)O)c2Cl)C(Cl)(Cl)Cl)c1Cl	29.3 µM (inactive)	28.7 µM (inactive)	–	29 µM (inactive)	30.8 µM (inactive)	40.2 µM (inactive)	25 µM (inactive)	> 100 µM (inactive)	–	33.7 µM (inactive)	33.3 µM (inactive)	38 µM (inactive)	36.1 µM (inactive)	25.9 µM (inactive)	12.1 µM (inactive)	38.3 µM (inactive)	21.4 µM (inactive)	40 µM (inactive)	19.8 µM (inactive)	43.8 µM (inactive)
NNC(=O)CC(=O)Nc1cccc(Cl)c1	> 100 µM (inactive)	> 100 µM (inactive)	> 100 µM (inactive)	> 100 µM (inactive)	> 100 µM (inactive)	> 100 µM (inactive)	> 100 µM (inactive)	> 100 µM (inactive)	> 100 µM (inactive)	> 100 µM (inactive)	> 100 µM (inactive)	> 100 µM (inactive)	> 100 µM (inactive)	> 100 µM (inactive)	> 100 µM (inactive)	> 100 µM (inactive)	> 100 µM (inactive)	> 100 µM (inactive)	> 100 µM (inactive)	> 100 µM (inactive)
CCOC(=O)C(=O)/C(=C/N1C(=O)CC(=O)NC1=S)C(=O)OCC	> 100 µM (inactive)	> 100 µM (inactive)	> 100 µM (inactive)	> 100 µM (inactive)	> 100 µM (inactive)	> 100 µM (inactive)	> 100 µM (inactive)	> 100 µM (inactive)	> 100 µM (inactive)	> 100 µM (inactive)	> 100 µM (inactive)	18.7 µM (inactive)	> 100 µM (inactive)	> 100 µM (inactive)	> 100 µM (inactive)	> 100 µM (inactive)	> 100 µM (inactive)	> 100 µM (inactive)	> 100 µM (inactive)	> 100 µM (inactive)
CCOC(=O)/C=C/[C@@H](CC)O[Si](C(C)C)(C(C)C)C(C)C	> 100 µM (inactive)	> 100 µM (inactive)	> 100 µM (inactive)	> 100 µM (inactive)	> 100 µM (inactive)	–	48.4 µM (inactive)	> 100 µM (inactive)	42.2 µM (inactive)	> 100 µM (inactive)	> 100 µM (inactive)	> 100 µM (inactive)	90.2 µM (inactive)	> 100 µM (inactive)	> 100 µM (inactive)	> 100 µM (inactive)	> 100 µM (inactive)	> 100 µM (inactive)	> 100 µM (inactive)	> 100 µM (inactive)
OCCOc1ccc(-c2cc(-c3ccccn3)nc(-c3ccccn3)c2)cc1	0.192 µM (active)	0.309 µM (active)	0.107 µM (active)	0.112 µM (active)	0.0731 µM (active)	0.249 µM (active)	0.222 µM (active)	0.284 µM (active)	0.0618 µM (active)	0.0916 µM (active)	0.107 µM (active)	1.37 µM (inactive)	0.277 µM (active)	0.447 µM (active)	0.0578 µM (active)	0.106 µM (active)	0.661 µM (active)	0.115 µM (active)	0.115 µM (active)	0.07 µM (active)
CC(C)NCCCNc1c2ccccc2nc2cccc([N+](=O)[O-])c12	0.0128 µM (active)	0.0133 µM (active)	0.0177 µM (active)	0.00202 µM (active)	0.00438 µM (active)	0.144 µM (active)	0.00746 µM (active)	0.0499 µM (active)	0.0142 µM (active)	0.0101 µM (active)	0.00262 µM (active)	0.0383 µM (active)	< 0.001 µM (active)	0.00156 µM (active)	0.00406 µM (active)	0.0065 µM (active)	0.0219 µM (active)	0.00161 µM (active)	0.0157 µM (active)	0.00566 µM (active)
O=C(c1ccccc1)c1nc2ccc(Cl)cc2cc1C(Br)Br	0.519 µM (active)	1.6 µM (inactive)	0.493 µM (active)	0.197 µM (active)	0.407 µM (active)	0.261 µM (active)	0.261 µM (active)	0.425 µM (active)	0.395 µM (active)	1.47 µM (inactive)	0.244 µM (active)	0.193 µM (active)	0.314 µM (active)	0.304 µM (active)	0.316 µM (active)	1.03 µM (active)	1.68 µM (inactive)	0.344 µM (active)	0.45 µM (active)	0.242 µM (active)
O=c1ccn(CC2(CO)CCCC2)c(=O)[nH]1	> 100 µM (inactive)	> 100 µM (inactive)	> 100 µM (inactive)	> 100 µM (inactive)	> 100 µM (inactive)	> 100 µM (inactive)	> 100 µM (inactive)	–	> 100 µM (inactive)	> 100 µM (inactive)	> 100 µM (inactive)	> 100 µM (inactive)	> 100 µM (inactive)	> 100 µM (inactive)	> 100 µM (inactive)	> 100 µM (inactive)	> 100 µM (inactive)	> 100 µM (inactive)	> 100 µM (inactive)	> 100 µM (inactive)
O=C1CNc2cc(N3CCN(c4cccc(C(F)(F)F)c4)CC3)ccc2N1	68.5 µM (inactive)	14.2 µM (inactive)	91 µM (inactive)	70.6 µM (inactive)	21.4 µM (inactive)	68.5 µM (inactive)	24.3 µM (inactive)	> 100 µM (inactive)	38.4 µM (inactive)	38.4 µM (inactive)	–	42.1 µM (inactive)	43.1 µM (inactive)	39.9 µM (inactive)	68.1 µM (inactive)	> 100 µM (inactive)	19.6 µM (inactive)	27.5 µM (inactive)	0.755 µM (active)	83.2 µM (inactive)
COC(CN(C)C(=S)Nc1cccc2ccccc12)OC	–	> 10 µM (inactive)	> 10 µM (inactive)	> 10 µM (inactive)	> 10 µM (inactive)	> 10 µM (inactive)	> 10 µM (inactive)	> 10 µM (inactive)	> 10 µM (inactive)	> 10 µM (inactive)	> 10 µM (inactive)	> 10 µM (inactive)	> 10 µM (inactive)	> 10 µM (inactive)	> 10 µM (inactive)	> 10 µM (inactive)	> 10 µM (inactive)	> 10 µM (inactive)	> 10 µM (inactive)	> 10 µM (inactive)
O=S(=O)(O)CCCc1cccc2ccccc12	> 100 µM (inactive)	> 100 µM (inactive)	> 100 µM (inactive)	> 100 µM (inactive)	> 100 µM (inactive)	> 100 µM (inactive)	> 100 µM (inactive)	> 100 µM (inactive)	> 100 µM (inactive)	> 100 µM (inactive)	> 100 µM (inactive)	> 100 µM (inactive)	> 100 µM (inactive)	> 100 µM (inactive)	> 100 µM (inactive)	> 100 µM (inactive)	> 100 µM (inactive)	> 100 µM (inactive)	> 100 µM (inactive)	> 100 µM (inactive)
CCOC(=O)c1cnc2oc3ccc(O)cc3c2c1C	> 100 µM (inactive)	29.9 µM (inactive)	35 µM (inactive)	> 100 µM (inactive)	33.7 µM (inactive)	> 100 µM (inactive)	78.7 µM (inactive)	> 100 µM (inactive)	32.7 µM (inactive)	> 100 µM (inactive)	> 100 µM (inactive)	35.2 µM (inactive)	> 100 µM (inactive)	> 100 µM (inactive)	> 100 µM (inactive)	> 100 µM (inactive)	> 100 µM (inactive)	> 100 µM (inactive)	> 100 µM (inactive)	61.8 µM (inactive)
